ChEMBL document CHEMBL1201862, “PubChem BioAssay data set” (2004)
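These data come from cells grown in 96-well plates and exposed to compound for 48 hours at five concentrations. GI50 is the concentration that inhibits growth by half.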 Activity calls are given as the source filed them. Rule as the data show it: active = GI50 up to about 1.1 µM and inactive = higher.

Tests used:
Assay in all cases: growth of human tumour cells (NCI), 48 h
[1] = test system: SK-MEL-2
[2] = test system: UACC-257
[3] = test system: A549
[4] = test system: OVCAR-5
[5] = test system: OVCAR-8
[6] = test system: 786-0
[7] = test system: MDA-N
[8] = test system: NCI-H226
[9] = test system: TK-10
[10] = test system: OVCAR-3
[11] = test system: RXF 393
[12] = test system: LOX IMVI
[13] = test system: HCC 2998
[14] = test system: MCF7
[15] = test system: HL-60
[16] = test system: HCT-15
[17] = test system: NCI-H460
[18] = test system: Malme-3M
[19] = test system: M14
[20] = test system: RPMI-8226

Compound	GI50 [1]	GI50 [2]	GI50 [3]	GI50 [4]	GI50 [5]	GI50 [6]	GI50 [7]	GI50 [8]	GI50 [9]	GI50 [10]	GI50 [11]	GI50 [12]	GI50 [13]	GI50 [14]	GI50 [15]	GI50 [16] [µM]	GI50 [17]	GI50 [18]	GI50 [19]	GI50 [20]
CN(C(=O)c1ccc2c(c1)sc1c(=O)n(C)c3ccccc3c12)c1ccccc1	> 100 µM (inactive)	> 100 µM (inactive)	> 100 µM (inactive)	> 100 µM (inactive)	> 100 µM (inactive)	59.7 µM (inactive)	> 100 µM (inactive)	> 100 µM (inactive)	> 100 µM (inactive)	> 100 µM (inactive)	> 100 µM (inactive)	> 100 µM (inactive)	> 100 µM (inactive)	> 100 µM (inactive)	> 100 µM (inactive)	> 100	> 100 µM (inactive)	> 100 µM (inactive)	> 100 µM (inactive)	–
N#CC(c1ccccc1)N(CCCCCCN(C(=O)c1ccccc1)C(C#N)c1ccccc1)C(=O)c1ccccc1 (stereo not drawn)	23.6 µM (inactive)	22.8 µM (inactive)	40.7 µM (inactive)	> 100 µM (inactive)	30.1 µM (inactive)	33.7 µM (inactive)	45.1 µM (inactive)	28.6 µM (inactive)	18.7 µM (inactive)	39 µM (inactive)	52.1 µM (inactive)	29.3 µM (inactive)	17.1 µM (inactive)	28.1 µM (inactive)	32.3 µM (inactive)	31.3	27.6 µM (inactive)	35.8 µM (inactive)	41.2 µM (inactive)	–
NC(=O)NNC(=O)c1nc[nH]c1[N+](=O)[O-]	> 100 µM (inactive)	> 100 µM (inactive)	> 100 µM (inactive)	> 100 µM (inactive)	> 100 µM (inactive)	> 100 µM (inactive)	> 100 µM (inactive)	> 100 µM (inactive)	> 100 µM (inactive)	> 100 µM (inactive)	> 100 µM (inactive)	> 100 µM (inactive)	> 100 µM (inactive)	> 100 µM (inactive)	–	> 100	> 100 µM (inactive)	> 100 µM (inactive)	> 100 µM (inactive)	> 100 µM (inactive)
CC1=CCC(C(C)(C)NC(=O)c2ccccc2)C/C1=N/O (stereo not drawn)	–	> 100 µM (inactive)	> 100 µM (inactive)	> 100 µM (inactive)	> 100 µM (inactive)	> 100 µM (inactive)	> 100 µM (inactive)	–	> 100 µM (inactive)	> 100 µM (inactive)	–	> 100 µM (inactive)	> 100 µM (inactive)	> 100 µM (inactive)	> 100 µM (inactive)	> 100	> 100 µM (inactive)	–	> 100 µM (inactive)	–
COCCN(CCOC)C(=O)COc1c2cc(C(C)(C)C)cc1Cc1cc(C(C)(C)C)cc(c1OCC(=O)N(CCOC)CCOC)Cc1cc(C(C)(C)C)cc(c1OCC(=O)N(CCOC)CCOC)Cc1cc(C(C)(C)C)cc(c1OCC(=O)N(CCOC)CCOC)Cc1cc(C(C)(C)C)cc(c1OCC(=O)N(CCOC)CCOC)C2	1.02 µM (active)	1.01 µM (active)	0.802 µM (active)	5.55 µM (inactive)	1.39 µM (inactive)	2.15 µM (inactive)	2.1 µM (inactive)	1.28 µM (inactive)	2.76 µM (inactive)	0.288 µM (active)	1.09 µM (active)	1.73 µM (inactive)	2.25 µM (inactive)	1.3 µM (inactive)	1.25 µM (inactive)	2.81	1.12 µM (inactive)	1.85 µM (inactive)	1.89 µM (inactive)	–
COc1ccccc1/C=C/c1nc2ccccc2o1	> 10 µM (inactive)	> 10 µM (inactive)	> 10 µM (inactive)	> 10 µM (inactive)	> 10 µM (inactive)	> 10 µM (inactive)	> 10 µM (inactive)	> 10 µM (inactive)	> 10 µM (inactive)	> 10 µM (inactive)	> 10 µM (inactive)	> 10 µM (inactive)	> 10 µM (inactive)	> 10 µM (inactive)	–	> 10	> 10 µM (inactive)	> 10 µM (inactive)	> 10 µM (inactive)	> 10 µM (inactive)
CCOc1ccc(N/C(=C(/C(Cl)=C(/Cl)NCCO)[N+](=O)[O-])n2nnc3ccccc32)cc1	35 µM (inactive)	41.3 µM (inactive)	44 µM (inactive)	35.6 µM (inactive)	18.3 µM (inactive)	29.6 µM (inactive)	28.9 µM (inactive)	> 100 µM (inactive)	–	18.1 µM (inactive)	16.2 µM (inactive)	–	79.4 µM (inactive)	19 µM (inactive)	–	20.5	48 µM (inactive)	18.4 µM (inactive)	30.4 µM (inactive)	30.7 µM (inactive)
Cc1cc(C)nc(NS(=O)(=O)c2ccc(NC(=O)c3c4ccccc4nc4ccccc34)cc2)n1	> 100 µM (inactive)	> 100 µM (inactive)	> 100 µM (inactive)	> 100 µM (inactive)	47.9 µM (inactive)	49 µM (inactive)	> 100 µM (inactive)	35.9 µM (inactive)	82.2 µM (inactive)	56.9 µM (inactive)	–	81.1 µM (inactive)	> 100 µM (inactive)	> 100 µM (inactive)	–	65.9	> 100 µM (inactive)	17.4 µM (inactive)	> 100 µM (inactive)	47.3 µM (inactive)
CCOC(=O)/C=C(/C(=O)OCC)n1ccc(=O)n(Cc2cnnn2CCCCOC(C)=O)c1=O	> 100 µM (inactive)	> 100 µM (inactive)	> 100 µM (inactive)	> 100 µM (inactive)	> 100 µM (inactive)	18.5 µM (inactive)	> 100 µM (inactive)	> 100 µM (inactive)	32.8 µM (inactive)	> 100 µM (inactive)	> 100 µM (inactive)	> 100 µM (inactive)	> 100 µM (inactive)	52 µM (inactive)	–	> 10	> 100 µM (inactive)	–	–	59.2 µM (inactive)
C1CCCCC2(CCCCCCCCC3(CCC1)SCCS3)SCCS2	> 100 µM (inactive)	> 100 µM (inactive)	> 100 µM (inactive)	> 100 µM (inactive)	> 100 µM (inactive)	> 100 µM (inactive)	> 100 µM (inactive)	> 100 µM (inactive)	> 100 µM (inactive)	> 100 µM (inactive)	–	> 100 µM (inactive)	> 100 µM (inactive)	> 100 µM (inactive)	> 100 µM (inactive)	> 100	> 100 µM (inactive)	> 100 µM (inactive)	> 100 µM (inactive)	–
Cc1cc(N(CCC#N)CCC#N)ccc1/C=N/NC(=O)c1cc(Cl)ccc1O	> 100 µM (inactive)	> 100 µM (inactive)	> 100 µM (inactive)	> 100 µM (inactive)	> 100 µM (inactive)	> 100 µM (inactive)	> 100 µM (inactive)	> 100 µM (inactive)	> 100 µM (inactive)	> 100 µM (inactive)	> 100 µM (inactive)	–	> 100 µM (inactive)	> 100 µM (inactive)	69.2 µM (inactive)	> 100	> 100 µM (inactive)	> 100 µM (inactive)	> 100 µM (inactive)	–
